Results: patent US9650395B2, “Antibacterial compounds and methods for use” (PTC Therapeutics, Inc., priority 2011, dated 2017)
Values after ≈ are worked out from the molar mass of the structure shown. Read-outs that look alike come from different tables or passages of the source.

Assays:
[1] = test system: control Gram-negative E. coli 25922 strain; experiment: Antibacterial activity, microbroth dilution MIC, E. coli 25922; assay type: cell-based, Escherichia coli; details: Escherichia coli; E. coli 25922, microbroth dilution; read-out: MIC, 25922
[2] = test system: resistant A. baumannii MXX2240 (MDR clinical isolate); experiment: Antibacterial activity, MIC, resistant A. baumannii MXX2240; assay type: cell-based, Acinetobacter baumannii; details: Acinetobacter baumannii, read-out: MIC MMX2240
[3] = test system: Gram-positive Staphylococcus aureus (S. aureus) 29213; experiment: Antibacterial activity, microbroth dilution MIC, S. aureus 29213; assay type: cell-based; details: Staphylococcus aureus; S. aureus 29213, microbroth dilution; read-out: MIC, 29213
[4] = test system: Klebsiella pneumoniae (K. pneumoniae) 35657; experiment: Antibacterial activity, MIC, K. pneumoniae 35657; assay type: cell-based; details: Klebsiella pneumoniae
[5] = test system: quinolone resistant E. coli LZ3111; experiment: Antibacterial activity, MIC, quinolone resistant E. coli LZ3111; assay type: cell-based, Escherichia coli; details: Escherichia coli, read-out: MIC, LZ3111
Excerpt: (§1) The antibacterial activity from a microbroth dilution method may be presented as the minimum inhibitory concentration (MIC in […]). The MIC value is the lowest concentration of a drug which prevents macroscopically visible bacterial growth under test conditions.
Mutations in these regions are known to confer a high level resistance to the quinolone class of antibiotics.

[6] = test system: super sensitive Gram-negative Escherichia coli (E. coli) BAS849; experiment: Antibacterial activity, microbroth dilution MIC, E. coli BAS849; assay type: cell-based; details: Escherichia coli; E. coli BAS849, microbroth dilution; read-out: MIC, BAS849
[7] = test system: Pseudomonas aeruginosa (P. aeruginosa) 27853; experiment: Antibacterial activity, MIC, P. aeruginosa 27853; assay type: cell-based; details: Pseudomonas aeruginosa, P. aeruginosa 27853; read-out: MIC 27853
Excerpt: as §1
Antibacterial activity of test compounds against the Gram-negative bacterium Pseudomonas aeruginosa (P. aeruginosa) 27853 is shown in Table 5.

[8] = test system: Acinetobacter baumannii (A. baumannii) BAA747; experiment: Antibacterial activity, MIC, A. baumannii BAA747; assay type: cell-based; details: Acinetobacter baumannii; A. baumannii BAA747; read-out: MIC BAA747
[9] = test system: resistant K. pneumoniae MXX1232 (MDR clinical isolate); experiment: Antibacterial activity, MIC, resistant K. pneumoniae MXX1232; assay type: cell-based, Klebsiella pneumoniae; details: Klebsiella pneumoniae, read-out: MIC MMX1232
[10] = resistant A. baumannii MMX2240, MDR clinical isolate
[11] = resistant K. pneumoniae MMX1232, MDR clinical isolate

SMILES	MIC [1] [µg/mL]	MIC [2, 10] [µg/mL]	MIC [3] [µg/mL]	MIC [4] [µg/mL]	MIC [5] [µg/mL]	MIC [6] [µg/mL]	MIC [7] [µg/mL]	MIC [8] [µg/mL]	MIC [9, 11] [µg/mL]	MIC [2] [µg/mL]	MIC [9] [µg/mL]
CCc1c(-c2ccc(N3CCC4(CCN(C)C4)C3)cc2)[nH]c(=O)c(C(=O)O)c1O (stereo not drawn) [Cpd 322, 5-ethyl-4-hydroxy-6-(4-(7-methyl-2,7-diazaspiro[4.4]nonan-2-yl)phenyl)-2-oxo-1,2-dihydropyridine-3-carboxylic acid]	< 1	12.5 to 150 (≈ 31.4 to 377 µM)	3.5 to 12.5 (≈ 8.81 to 31.4 µM)	1 to 3.5 (≈ 2.52 to 8.81 µM)	12.5 to 150 (≈ 31.4 to 377 µM)	< 1	3.5 to 12.5 (≈ 8.81 to 31.4 µM)	1 to 3.5 (≈ 2.52 to 8.81 µM)	12.5 to 150 (≈ 31.4 to 377 µM)	–	–
CCc1c(-c2ccc(C3=CCN(CC)CC3)cc2)[nH]c(=O)c(C(=O)O)c1O [Cpd 341, 5-ethyl-6-(4-(1-ethyl-1,2,3,6-tetrahydropyridin-4-yl)phenyl)-4-hydroxy-2-oxo-1,2-dihydropyridine-3-carboxylic acid]	12.5 to 150 (≈ 33.9 to 407 µM)	–	12.5 to 150 (≈ 33.9 to 407 µM)	3.5 to 12.5 (≈ 9.5 to 33.9 µM)	3.5 to 12.5 (≈ 9.5 to 33.9 µM)	1 to 3.5 (≈ 2.71 to 9.5 µM)	12.5 to 150 (≈ 33.9 to 407 µM)	12.5 to 150 (≈ 33.9 to 407 µM)	–	12.5 to 150 (≈ 33.9 to 407 µM)	12.5 to 150 (≈ 33.9 to 407 µM)
CCc1c(-c2ccc(N3CCC(c4ccccn4)C3)cc2)[nH]c(=O)c(C(=O)O)c1O (stereo not drawn) [Cpd 286, 5-ethyl-4-hydroxy-2-oxo-6-{4-[3-(pyridin-2-yl)pyrrolidin-1-yl]phenyl}-1,2-dihydropyridine-3-carboxylic acid]	1 to 3.5 (≈ 2.47 to 8.63 µM)	12.5 to 150 (≈ 30.8 to 370 µM)	1 to 3.5 (≈ 2.47 to 8.63 µM)	12.5 to 150 (≈ 30.8 to 370 µM)	12.5 to 150 (≈ 30.8 to 370 µM)	< 1	12.5 to 150 (≈ 30.8 to 370 µM)	3.5 to 12.5 (≈ 8.63 to 30.8 µM)	12.5 to 150 (≈ 30.8 to 370 µM)	–	–
CCc1c(-c2ccc(N3CC4(CNC4)C3)cc2)[nH]c(=O)c(C(=O)O)c1O [Cpd 324, 6-(4-(2,6-diazaspiro[3.3]heptan-2-yl)phenyl)-5-ethyl-4-hydroxy-2-oxo-1,2-dihydropyridine-3-carboxylic acid]	12.5 to 150 (≈ 35.2 to 422 µM)	12.5 to 150 (≈ 35.2 to 422 µM)	12.5 to 150 (≈ 35.2 to 422 µM)	12.5 to 150 (≈ 35.2 to 422 µM)	12.5 to 150 (≈ 35.2 to 422 µM)	3.5 to 12.5 (≈ 9.85 to 35.2 µM)	12.5 to 150 (≈ 35.2 to 422 µM)	12.5 to 150 (≈ 35.2 to 422 µM)	12.5 to 150 (≈ 35.2 to 422 µM)	–	–
CCc1c(-c2ccc(N3CC4(CCNCC4)C3)cc2)[nH]c(=O)c(C(=O)O)c1O [Cpd 320, 6-(4-(2,7-diazaspiro[3.5]nonan-2-yl)phenyl)-5-ethyl-4-hydroxy-2-oxo-1,2-dihydropyridine-3-carboxylic acid]	12.5 to 150 (≈ 32.6 to 391 µM)	12.5 to 150 (≈ 32.6 to 391 µM)	12.5 to 150 (≈ 32.6 to 391 µM)	3.5 to 12.5 (≈ 9.13 to 32.6 µM)	12.5 to 150 (≈ 32.6 to 391 µM)	3.5 to 12.5 (≈ 9.13 to 32.6 µM)	12.5 to 150 (≈ 32.6 to 391 µM)	12.5 to 150 (≈ 32.6 to 391 µM)	12.5 to 150 (≈ 32.6 to 391 µM)	–	–
CCc1cc(C(=O)O)c(=O)[nH]c1-c1ccc(N2CCC(O)(CC)C2)cc1 (stereo not drawn) [Cpd 232, 5-ethyl-6-[4-(3-ethyl-3-hydroxypyrrolidin-1-yl)phenyl]-2-oxo-1,2-dihydropyridine-3-carboxylic acid]	1 to 3.5 (≈ 2.81 to 9.82 µM)	12.5 to 150 (≈ 35.1 to 421 µM)	3.5 to 12.5 (≈ 9.82 to 35.1 µM)	1 to 3.5 (≈ 2.81 to 9.82 µM)	12.5 to 150 (≈ 35.1 to 421 µM)	< 1	12.5 to 150 (≈ 35.1 to 421 µM)	1 to 3.5 (≈ 2.81 to 9.82 µM)	12.5 to 150 (≈ 35.1 to 421 µM)	–	–
Cc1cc(N2C[C@@H]3[C@@H](N)[C@@H]3C2)ccc1-c1[nH]c(=O)c(C(=O)O)c(O)c1C [Cpd 318, 6-(4-((1R,5S,6s)-6-amino-3-azabicyclo[3.1.0]hexan-3-yl)-2-methylphenyl)-4-hydroxy-5-methyl-2-oxo-1,2-dihydropyridine-3-carboxylic acid]	12.5 to 150 (≈ 35.2 to 422 µM)	12.5 to 150 (≈ 35.2 to 422 µM)	12.5 to 150 (≈ 35.2 to 422 µM)	12.5 to 150 (≈ 35.2 to 422 µM)	12.5 to 150 (≈ 35.2 to 422 µM)	3.5 to 12.5 (≈ 9.85 to 35.2 µM)	12.5 to 150 (≈ 35.2 to 422 µM)	12.5 to 150 (≈ 35.2 to 422 µM)	12.5 to 150 (≈ 35.2 to 422 µM)	–	–
